pIC50: −log10 of the molar value. Some results are limits rather than exact numbers.

The subject of experiment [1] is remaining HDACs. Briefly: HDAC panel HDAC1 to HDAC10, remaining HDACs (other than HDAC6 and HDAC8). As to conditions: about […] to >10 μM, read-out: IC50 against the remaining HDACs. The class given is biochemical. Here is the method:
(§1) Dose-response studies for HDAC isoforms were conducted at Reaction Biology Corporation. All assays are based on the same principle of a two-step reaction: first, the substrate with the acetylated lysine side chain is incubated with a sample containing HDAC enzyme, to produce the deacetylated products, which are then digested in the second step by the addition of the developer to produce the fluorescent signal proportional to the amount of deacetylated substrates. Recombinant proteins HDAC1, HDAC2, HDAC3, HDAC4, HDAC5, HDAC6, HDAC7, HDAC8, HDAC9, and HDAC10 were incubated with a test compound for 5min, and then the fluorophore-conjugated substrate was added to the wells and incubated for 30 min to 2 h for different HDACs. Reactions were performed in assay buffer (50 mM Tris-HCl, pH 8.0, 137 mM NaCl, 2.7 mM KCl, 1 mM MgCl2, 1 mg/mL BSA, 1% DMSO, pH 7.4) and fluorescence measurements were obtained approximately every 20 min for an hour using an Envision, Perkin-Elmer plate reader (Excitation 360 nm/Emission 460 nm). IC50 values and curve fits were obtained using (GraphPad Prism Software, Inc.).

In experiment [2] the target is T1, human LSD1 (Homo sapiens, UniProt O60341).
T1 construct: Tm of full length LSD1 protein in the absence of compound was 43°C
Briefly: Thermal shift assay (SYPRO Orange). As to conditions: protein:compound 1:10; Tm in the absence of compound 43°C. The class given is binding. How it is done: (§2) The melting temperature (Tm) of human LSD1 and HDAC8 proteins were determined by fluorescence based thermal shift assay. Reaction mixture containing 0.5 μM protein, 5X SYPRO™ Orange Protein Gel Stain (Thermo Fisher Scientific Cat: S6650), compound at 10-fold excess for hLSD1, 15-fold excess for hHDAC8. The final volume made up with respective protein buffers. All experiments were done in triplicates at 50 μL reaction volume. The samples heated from 15°C to 95°C with an increment of 1°C per 30sec using CFX96™ Real-Time PCR Detection system–C1000 Thermal Cycler (Bio-Rad). Filters custom configured to the optimal excitation (492 nm) and emission (610 nm) wavelengths for SYPRO orange dye. Protein denaturation monitored by the increase in fluorescence signal emitted by SYPRO Orange. The SYPRO Orange binds to the exposed hydrophobic regions of protein undergoing thermal denaturation and corresponding fluorescence emissions are recorded as melt curves. The temperature corresponding to the inflection point, Tm is determined by calculating the first derivative from melt curve using CFX manager 3.1 software (Bio-Rad).

Experiment [3] has as its target hHDAC8 (Homo sapiens, UniProt Q9BY41). Briefly: Thermal shift assay (SYPRO Orange). As to conditions: protein:compound 1:15; Tm without compound 41°C. The class given is binding. How it is done: as §2
The test system of experiment [4] is GFI1b. Briefly: Differentiation marker mRNA by RT-qPCR in HEL 92.1.7 cells. The class given is cell-based, human. As to conditions: HEL92.1.7, 3–48 h. How it is done:
(§3) Total RNA was isolated using the TRIzol (Thermo Fisher Scientific, Waltham, MA, USA) reagent according to the manufacturer's instructions. The obtained RNA was reverse-transcribed to synthesize the complementary DNA from RNA using High Capacity cDNA Reverse Transcription Kit (Applied Biosystems, U.S.). DyNAmo ColorFlash SYBR Green qPCR Kit (Thermo Fisher Scientific) was used with cDNA and gene specific primers at a final volume of 10 μL. Real-time quantitative PCR was performed for 40 cycles of 15 s each, at 95°C and 30 s at 60°C, using a CFX96 real time machine (Bio-Rad). All reactions were performed in duplicate and the data was calculated using the delta (delta Ct) method. The relative gene expression levels for a target gene was normalized to the expression of β-actin. All the primer sequences were procured from Eurofins Genomics India Limited. Primer sequences for the analysed genes are as follows: • beta Actin [NT], beta Actin [NT]. Gfi1b [NT], Gfi1b [NT], CD86 [NT], CD86 […], CD11b [NT]

The test system of experiment [5] is CD86. The experiment is described as above. The class given is cell-based, human. As to conditions: HEL92.1.7, 3–48 h. Here is the method: as §3
In experiment [6] the test system is CD11b. The experiment is described as above. The class given is cell-based, human. As to conditions: HEL92.1.7, 3–48 h. Here is the method:
as §3

In experiment [7] the test system is acetylation of α-Tubulin. Briefly: Western blot of tubulin acetylation in HEL92.1.7 cells. The class given is cell-based, human. As to conditions: HEL92.1.7, 3 to 48 h, 8 point dose response from 10 μM. Here is the method: Cells were harvested and washed twice with cold PBS after the indicated treatments. Cell pellets were lysed in 30μl of lysis buffer (50 mM Tris-HCl, pH 7.4, 150 mM NaCl, 1% Triton X-100, 0.1% SDS, 1 mM EDTA, 1 mM Na3VO4, 1 mM NaF, and protease inhibitor cocktail) for 30 min on ice. Lysates were centrifuged at 12,000 ×g for 20 min at 4°C, and the protein content in the supernatants was determined using the Bradford reagent (Bio-Rad). Equal amount of protein lysate was resolved by SDS-PAGE and transferred onto a nitrocellulose membrane (Bio-Rad). Membranes were blocked with 5% non-fat milk powder in PBS-Tween 20 buffer for 1 h, followed by incubation with primary antibody at 4°C overnight. Membranes were washed in PBST and then incubated with HRP-conjugated anti-goat or mouse anti- IgG (Cell Signalling Technology) antibody and detected using the Millipore ECL Western Blot substrate. β-actin was used as a loading control. Antibodies were obtained from the following sources: Acetyl-α- Tubulin (Cell Signalling Technology, […], 1:500), β-actin (Santa Cruz Biotechnology, sc47778, 1:2000), HRP-conjugated secondary antibodies (Santa Cruz Biotechnology, 1:2000 for β-actin blots, 1:1000 for all others). Blots shown are representative of at least two independent experiments.

The target of experiment [8] is T2, HDAC1 (Homo sapiens, UniProt Q13547).
T2 construct: purchased Reaction Biology Corporation (assay run at the CRO)
Briefly: HDAC isoform inhibition assay (Reaction Biology). The class given is biochemical. As to conditions: generated at Reaction Biology Corporation.

The target in experiment [9] is T3, HDAC7 (Homo sapiens, UniProt Q8WUI4).
T3 construct: purchased Reaction Biology Corporation (assay run at the CRO)
The experiment can be described thus: HDAC isoform inhibition assay (Reaction Biology). The class given is biochemical. As to conditions: generated at Reaction Biology Corporation. Here is the method: as §1

For experiment [10], the target named is T4, HDAC9 (Homo sapiens, UniProt Q9UKV0).
T4 construct: purchased Reaction Biology Corporation (assay run at the CRO)
Briefly: HDAC isoform inhibition assay (Reaction Biology). The class given is biochemical. As to conditions: generated at Reaction Biology Corporation. How it is done:
as §1

Experiment [11] addresses T5, HDAC5 (Homo sapiens, UniProt Q9UQL6).
T5 construct: purchased Reaction Biology Corporation (assay run at the CRO)
Briefly: HDAC isoform inhibition assay (Reaction Biology). The class given is biochemical. As to conditions: generated at Reaction Biology Corporation. How it is done:
as §1

Experiment [12] addresses T6, HDAC2 (Homo sapiens, UniProt Q92769).
T6 construct: purchased Reaction Biology Corporation (assay run at the CRO)
The experiment can be described thus: HDAC isoform inhibition assay (Reaction Biology). The class given is biochemical. As to conditions: generated at Reaction Biology Corporation. Here is the method: as §1

T5 sequence (Q9UQL6 whole entry): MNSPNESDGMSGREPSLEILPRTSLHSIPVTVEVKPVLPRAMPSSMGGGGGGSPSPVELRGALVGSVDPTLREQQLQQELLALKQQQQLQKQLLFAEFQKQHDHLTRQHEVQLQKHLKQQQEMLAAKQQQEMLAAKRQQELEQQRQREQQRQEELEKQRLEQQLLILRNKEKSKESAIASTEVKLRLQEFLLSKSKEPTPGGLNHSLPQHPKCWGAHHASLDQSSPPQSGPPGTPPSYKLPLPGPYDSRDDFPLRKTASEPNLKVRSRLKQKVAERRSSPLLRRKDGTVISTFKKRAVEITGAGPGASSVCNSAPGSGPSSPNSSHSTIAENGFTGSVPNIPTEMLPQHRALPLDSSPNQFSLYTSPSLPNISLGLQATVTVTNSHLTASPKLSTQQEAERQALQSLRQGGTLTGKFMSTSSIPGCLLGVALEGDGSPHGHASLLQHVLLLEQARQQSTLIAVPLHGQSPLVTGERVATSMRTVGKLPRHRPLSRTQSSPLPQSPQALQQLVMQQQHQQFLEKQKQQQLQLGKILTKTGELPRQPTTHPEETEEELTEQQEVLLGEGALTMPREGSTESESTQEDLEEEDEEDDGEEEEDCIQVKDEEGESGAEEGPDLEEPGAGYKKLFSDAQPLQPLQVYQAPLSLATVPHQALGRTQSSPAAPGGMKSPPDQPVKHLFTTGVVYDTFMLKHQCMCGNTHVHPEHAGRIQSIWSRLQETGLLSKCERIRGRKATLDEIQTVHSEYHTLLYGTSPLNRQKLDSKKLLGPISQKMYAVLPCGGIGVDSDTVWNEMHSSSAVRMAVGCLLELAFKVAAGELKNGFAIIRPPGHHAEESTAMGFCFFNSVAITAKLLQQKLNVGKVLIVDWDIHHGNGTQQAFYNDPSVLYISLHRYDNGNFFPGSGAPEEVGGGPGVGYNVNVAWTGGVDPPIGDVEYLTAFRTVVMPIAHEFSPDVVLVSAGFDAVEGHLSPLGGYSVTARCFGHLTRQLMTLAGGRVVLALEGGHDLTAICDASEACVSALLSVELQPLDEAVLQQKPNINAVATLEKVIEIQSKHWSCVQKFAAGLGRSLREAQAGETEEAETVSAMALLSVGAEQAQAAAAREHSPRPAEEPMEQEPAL
T6 sequence (Q92769 whole entry): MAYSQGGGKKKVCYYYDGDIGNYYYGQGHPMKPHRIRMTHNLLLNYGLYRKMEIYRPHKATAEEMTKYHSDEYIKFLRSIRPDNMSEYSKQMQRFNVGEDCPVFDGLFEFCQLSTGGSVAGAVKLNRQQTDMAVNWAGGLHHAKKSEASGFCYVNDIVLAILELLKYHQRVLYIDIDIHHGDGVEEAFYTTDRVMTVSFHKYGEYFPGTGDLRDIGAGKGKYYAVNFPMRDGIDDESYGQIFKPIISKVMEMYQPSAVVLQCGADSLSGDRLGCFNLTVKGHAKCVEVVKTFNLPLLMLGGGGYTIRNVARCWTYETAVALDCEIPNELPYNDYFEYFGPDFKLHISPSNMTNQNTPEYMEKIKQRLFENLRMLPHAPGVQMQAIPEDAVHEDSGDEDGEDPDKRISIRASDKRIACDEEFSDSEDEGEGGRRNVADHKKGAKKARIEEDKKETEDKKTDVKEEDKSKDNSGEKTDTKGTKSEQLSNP
Sequence of hHDAC8 (Q9BY41 whole entry): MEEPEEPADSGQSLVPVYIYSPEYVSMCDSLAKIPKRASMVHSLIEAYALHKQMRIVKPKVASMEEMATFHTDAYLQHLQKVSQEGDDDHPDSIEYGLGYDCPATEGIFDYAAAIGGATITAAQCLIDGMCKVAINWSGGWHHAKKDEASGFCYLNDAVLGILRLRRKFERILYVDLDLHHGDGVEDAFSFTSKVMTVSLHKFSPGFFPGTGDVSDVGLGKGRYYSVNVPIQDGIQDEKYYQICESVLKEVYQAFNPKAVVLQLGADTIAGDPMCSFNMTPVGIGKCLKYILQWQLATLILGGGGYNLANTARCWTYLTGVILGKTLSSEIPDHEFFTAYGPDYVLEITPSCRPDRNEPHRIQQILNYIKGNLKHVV
T3 sequence (Q8WUI4 whole entry): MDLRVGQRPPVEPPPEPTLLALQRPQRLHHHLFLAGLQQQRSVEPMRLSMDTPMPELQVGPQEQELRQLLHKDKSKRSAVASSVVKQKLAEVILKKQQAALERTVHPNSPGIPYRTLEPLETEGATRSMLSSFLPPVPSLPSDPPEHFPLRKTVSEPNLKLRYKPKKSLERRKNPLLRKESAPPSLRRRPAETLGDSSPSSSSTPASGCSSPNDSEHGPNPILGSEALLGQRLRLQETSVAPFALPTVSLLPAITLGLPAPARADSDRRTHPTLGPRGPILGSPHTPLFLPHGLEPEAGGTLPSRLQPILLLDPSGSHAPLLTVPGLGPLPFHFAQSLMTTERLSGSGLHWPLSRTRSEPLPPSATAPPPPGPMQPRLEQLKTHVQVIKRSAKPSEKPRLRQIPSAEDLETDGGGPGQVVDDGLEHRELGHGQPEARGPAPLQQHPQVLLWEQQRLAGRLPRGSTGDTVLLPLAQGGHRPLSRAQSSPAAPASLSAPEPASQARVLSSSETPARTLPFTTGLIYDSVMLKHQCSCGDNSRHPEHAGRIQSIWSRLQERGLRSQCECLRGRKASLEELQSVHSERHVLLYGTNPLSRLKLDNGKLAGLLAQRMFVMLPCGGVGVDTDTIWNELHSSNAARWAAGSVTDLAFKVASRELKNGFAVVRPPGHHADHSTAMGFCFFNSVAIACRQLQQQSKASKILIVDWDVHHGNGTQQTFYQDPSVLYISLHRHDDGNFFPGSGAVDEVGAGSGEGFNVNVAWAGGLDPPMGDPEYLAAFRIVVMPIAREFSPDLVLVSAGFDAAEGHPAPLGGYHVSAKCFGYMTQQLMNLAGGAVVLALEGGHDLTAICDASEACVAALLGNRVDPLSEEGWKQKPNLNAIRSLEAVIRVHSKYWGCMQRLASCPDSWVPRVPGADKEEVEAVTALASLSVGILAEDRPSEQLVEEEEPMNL
T4 sequence (Q9UKV0 whole entry): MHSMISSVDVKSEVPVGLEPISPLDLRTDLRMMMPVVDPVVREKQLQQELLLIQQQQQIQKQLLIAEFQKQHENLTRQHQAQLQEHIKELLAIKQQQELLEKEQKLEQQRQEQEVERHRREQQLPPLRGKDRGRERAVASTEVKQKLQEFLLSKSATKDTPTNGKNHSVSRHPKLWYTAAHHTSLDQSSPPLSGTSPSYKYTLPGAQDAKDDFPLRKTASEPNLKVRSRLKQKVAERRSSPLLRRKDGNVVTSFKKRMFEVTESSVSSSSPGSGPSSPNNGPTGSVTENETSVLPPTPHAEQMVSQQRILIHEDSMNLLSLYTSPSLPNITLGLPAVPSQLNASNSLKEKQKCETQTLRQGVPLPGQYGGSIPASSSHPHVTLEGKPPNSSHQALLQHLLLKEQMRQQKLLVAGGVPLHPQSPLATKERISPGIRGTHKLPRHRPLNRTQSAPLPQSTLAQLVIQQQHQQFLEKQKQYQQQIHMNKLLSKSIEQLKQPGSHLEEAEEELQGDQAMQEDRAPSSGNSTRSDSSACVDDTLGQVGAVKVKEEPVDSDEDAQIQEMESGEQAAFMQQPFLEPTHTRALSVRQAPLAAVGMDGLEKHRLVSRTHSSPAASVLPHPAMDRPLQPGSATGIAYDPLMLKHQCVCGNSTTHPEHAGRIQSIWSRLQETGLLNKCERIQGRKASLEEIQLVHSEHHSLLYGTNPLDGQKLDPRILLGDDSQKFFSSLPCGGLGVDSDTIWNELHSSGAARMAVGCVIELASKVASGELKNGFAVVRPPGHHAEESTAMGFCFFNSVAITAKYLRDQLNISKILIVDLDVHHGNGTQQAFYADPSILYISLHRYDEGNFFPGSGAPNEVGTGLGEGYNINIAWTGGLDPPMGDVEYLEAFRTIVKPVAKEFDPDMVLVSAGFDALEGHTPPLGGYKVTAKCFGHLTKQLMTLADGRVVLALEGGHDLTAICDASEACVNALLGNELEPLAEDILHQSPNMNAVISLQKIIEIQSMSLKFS
T2 sequence (Q13547 whole entry): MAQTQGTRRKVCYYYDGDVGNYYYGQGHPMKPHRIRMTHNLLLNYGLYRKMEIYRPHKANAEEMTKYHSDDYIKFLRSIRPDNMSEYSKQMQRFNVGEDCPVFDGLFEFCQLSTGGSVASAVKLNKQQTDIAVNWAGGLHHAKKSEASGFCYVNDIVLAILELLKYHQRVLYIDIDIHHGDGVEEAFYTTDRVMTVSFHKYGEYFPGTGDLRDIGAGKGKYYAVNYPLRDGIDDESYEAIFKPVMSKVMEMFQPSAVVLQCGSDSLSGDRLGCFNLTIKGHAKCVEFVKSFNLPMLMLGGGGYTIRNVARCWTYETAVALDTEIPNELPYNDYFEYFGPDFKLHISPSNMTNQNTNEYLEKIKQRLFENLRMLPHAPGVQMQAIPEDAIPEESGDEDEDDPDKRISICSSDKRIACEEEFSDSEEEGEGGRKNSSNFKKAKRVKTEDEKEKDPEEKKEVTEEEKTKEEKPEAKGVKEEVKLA

Turning to `O=C(NO)c1ccc(CCCN2CCC(CN[C@H]3C[C@@H]3c3ccccc3)CC2)cc1` (relative stereo) [JBI-097], the pIC50 was at most 5.96 in experiment [1]; 5.47 in [8]; 5.45 in [9]; 5.46 in experiment [10]; 5.94 in [11]; 5.40 in [12]. Also, the “Tm of LSD1 incubated with compound” value in experiment [2] was 55 °C. For the same compound, the “Tm of HDAC8 incubated with compound” value in experiment [3] was determined as 47 °C. Also, the “GFI1b modulation (mRNA)” value in experiment [4] was “strong and sustained up-regulation”. Further, the “CD86 modulation (mRNA)” value in experiment [5] was “strong and sustained up-regulation”. Besides, the “CD11b modulation (mRNA)” value in experiment [6] is “strong and sustained up-regulation”. Further, the “acetylation of α-Tubulin” value in experiment [7] is “time and concentration dependent increase”.

These data come from article PMC9810167, “Novel dual LSD1/HDAC6 inhibitor for the treatment of cancer” (PLOS ONE, 2023).
